Measured values reported in article PMC11003925, “Antimicrobial activity and properties of de novo design of short synthetic lipopeptides” (Folia Microbiologica, 2024).
≈ marks a conversion by molar mass, not a printed value. Residues, ends and D or L forms follow the SMILES beside them. *: point of attachment. Palmitoyl = CCCCCCCCCCCCCCCC(=O)*

What was measured:
E. coli DBM 3001 = type: cell-based
Protocol: (§1) A Bioscreen C automated microbiology growth curve analysis system (Growth Curves, Piscataway, NJ, USA) was used for the quantitative determination of antimicrobial activity (minimal inhibitory concentration, MIC) of PAL/LCA-peptides. Optical density was measured with a wide bandpass filter (wavelength range 420–580 nm) at regular intervals and temperatures. This assay was performed in a special microtiter plate (10 × 10 wells) that allowed the simultaneous testing of a large number of samples against several microorganisms. The total testing volume was 100 µL, obtained by mixing 10 µL of microbial culture with OD600 equal to 0.1 with growth medium and a solution of the tested compounds. The positive controls were vancomycin and tetracycline for Bacillus subtilis (100 µg/mL) for Gram-positive bacteria, kanamycin, and tetracycline for Acinetobacter baumannii (100 µg/mL) for Gram-negative bacteria, and clotrimazole or amphotericin (100 µg/mL) for fungi. The maximal concentration of tested lipoproteins was 1 mg/mL. A pure growth medium was used as the negative control. The measurement period was 25 h. The lowest concentration with a 100% inhibition effect for 24 h of incubation was chosen as the MIC. The antibacterial activity of each compound was expressed as the minimum inhibitory concentration MIC (MIC is the lowest concentration of the compound needed to inhibit the growth of bacterial cells) and IC50 (IC50 is the concentration of the compound needed to inhibit the growth of bacterial cells by 50%).

E. faecalis DBM 3075 = type: cell-based
Protocol: as §1

Ps. aeruginosa DBM 3081 = type: cell-based, Pseudomonas aeruginosa; conditions: 25 h
Protocol: as §1

M. luteus DBM 3053 = type: cell-based, Micrococcus luteus
Protocol: as §1

C. tropicalis DBM 2166 = type: cell-based, Candida tropicalis
Protocol: as §1

Staph. aureus MRSA1 = type: cell-based, Staphylococcus aureus; conditions: 24 h, 2
Protocol: This assay was used to determine how quick the effect of PAL/LCA-peptides is on bacteria, as well as whether the activity of these compounds is dependent on the presence of active bacterial metabolism (Kamysz et al. [2007]). The bacterial cultures were incubated overnight at 37 °C in Mueller–Hinton’s broth 2 or potassium phosphate buffer (0.1 M, pH 7). Cultures were diluted to OD600 equal to 0.1 and divided into 2 samples, and the final volume of each sample was 1 mL; after that, they were centrifuged (5000 × g, 10 min) to collect bacteria. […] The samples were incubated at 37 °C. At specific time intervals, samples of bacterial suspension were taken, diluted, and spread on Petri dishes with Mueller–Hinton’s agar to count the number of surviving cells as colony-forming units (CFU). The whole experiment lasted 24 h.

bacterial membrane = test: Membrane disruption (released lactate dehydrogenase activity); type: cell-based, Staphylococcus aureus; conditions: 1 h incubation at 37 °C, LDH kit, triplets
Protocol: The disruption of the microbial membrane was followed by the detection of lactate dehydrogenase activity released from the intracellular space using a Cytotoxicity Detection Kit (LDH) from Roche (Korzeniewski and Callewaert [1983]; Macurkova et al. [2014]) after 1 h incubation at 37 °C with the PAL/LCA-peptide. The culture supernatant was collected and incubated with the reaction mixture from the kit. In the first step, NAD^+ is reduced to NADH + H^+ by the LDH-catalyzed conversion of lactate to pyruvate. In the second step, the catalyst (diaphorase) transfers H/H^+ from NADH + H^+ to the tetrazolium salt 2-(4-iodophenyl)-3-(4-nitrophenyl)-5-phenyl-2H-tetrazolium chloride (INT), which is reduced to formazan. The formazan dye formed is red and water-soluble and gives a broad absorption maximum at 500 nm. An increase in the amount of dead or plasma membrane-damaged cells results in an increase in the LDH activity in the cell culture supernatant.
To determine the degree of damage to the cell membrane (%) by the tested substances, averages of absorbances (triplets) were calculated from the measured values for the samples, controls, and pure medium. Subsequently, the absorbance average for the clean medium (background) was subtracted from all averages obtained in this way. The degree of damage to the cell membrane by the tested substances was expressed as follows: membranedamage%=((AVZ-∅ANK)/(∅APK-ANK))∙100 ∅AVZ⋯averageabsorbanceofsample ∅ANK⋯averageabsorbanceofnegativecontrol ∅APK⋯averageabsorbanceofpositivecontrol

plasmid pGreen 0029 = test: DNA binding assay (gel retardation); conditions: circular or linearized forms, tested ratios
Protocol: This assay was performed as described by Park et al. ([1998]), with a few modifications. […] The reaction mixture was incubated at room temperature for 1 h. Subsequently, 4 µL of native loading buffer (10% Ficol, 10 mM Tris–HCl (pH 7.5), 50 mM EDTA, 0.25% bromophenol blue) was added. An aliquot was applied to 1% agarose gel electrophoresis in 0.5xTris borate-EDTA buffer. Circular plasmid DNA was isolated from (Luria–Bertani medium with AMPI in final concentration 100 µg/mL) bacterial strain E. coli DH5α / pBluescriptII KS- that had been grown overnight, and linearization was performed overnight by enzymatic reaction using restriction endonuclease EcoRV at 37 °C. The evaluation was performed by visualizing the DNA with the intercalation dye Midori Green Advanced DNA Stain under UV light. Reduced electrophoretic mobility compared to the control is considered to be evidence of peptide binding to DNA.
According to the previous results, we decided to clarify one of the possible molecular interaction mechanisms, the ability of the studied lipopeptides to bind microbial plasmid DNA. Based on the assumption that pore formation is only one of the influencing factors, which arose from previous results, the effect on one of the possible intracellular targets, DNA, was determined. This determination was carried out on isolated plasmid DNA, specifically on two plasmids, pGreen 0029 and pBluescript II KS- in circular and linearized form.

## CCCCCCCCCCCCCCCC(=O)N[C@@H](CC(C)C)C(=O)N[C@H](C(=O)N[C@@H](CCCCN)C(=O)N[C@@H](CCCNC(=N)N)C(=O)N[C@@H](C)C(=O)NCC(N)=O)C(C)C [SHP-1.2, PAL-LVKRAG-NH2] (Palmitoyl-LVKRAG-NH2)
E. coli DBM 3001; DBM 3001, 24 h
  MIC: 78.9 µg/mL (≈ 89.6 µM)
E. coli DBM 3001; DBM 3001, 25 h
  IC50: 100.0 µg/mL (≈ 114 µM)
E. faecalis DBM 3075; DBM 3075, 24 h
  MIC: 32.6 µg/mL (≈ 37 µM)
E. faecalis DBM 3075; DBM 3075, 25 h
  IC50: 40 µg/mL (≈ 45.4 µM)
Ps. aeruginosa DBM 3081
  IC50: 60.0 µg/mL (≈ 68.2 µM)
M. luteus DBM 3053; DBM 3053, 24 h
  MIC: 6.4 µg/mL (≈ 7.27 µM)
M. luteus DBM 3053; DBM 3053, 25 h
  IC50: 10.0 µg/mL (≈ 11.4 µM)
C. tropicalis DBM 2166; DBM 2166, 24 h
  MIC: 55.9 µg/mL (≈ 63.5 µM)
C. tropicalis DBM 2166; DBM 2166, 25 h
  IC50: 100.0 µg/mL (≈ 114 µM)
Staph. aureus MRSA1
  bacteria killed within half an hour: 100%
Bacterial membrane; KP (potassium phosphate buffer)
  Membrane damage (%): 32 ± 4%
Bacterial membrane; MHB (Mueller–Hinton broth II)
  Membrane damage (%): 26 ± 3%
Plasmid pGreen 0029
  influence on electrophoretic mobility of plasmid DNA: did not exhibit any influence
